Measurements: PubChem BioAssay AID248 (DTP/NCI, 2004)
Where “and” joins values, the source holds several entries; their conditions need not be identical. Identical values can stand only once. Inconclusive results and toxic doses are left out. Rule as the data show it: active = T/C of 150% or more; inactive = T/C below 125%.

System: L1210 leukemia ip in BDF1 mice, survival T/C
Assay: NCI In Vivo Anticancer Drug Screen. Data for tumor model L1210 Leukemia (intraperitoneal) in B6D2F1 (BDF1) mice
Details: endpoint: mean survival time, higher = longer survival
In short: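 Ratio derived from survival: compound-dosed mice over vehicle-dosed mice, all bearing a transplantable tumor.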

[1] = dose: 100.0 mg/kg/injection, schedule: Q01DX001 (ip), vehicle: other
[2] = dose: 100.0 mg/kg/injection, schedule: Q04DX003 (ip), vehicle: Klucel (hydroxypropylcellulose) (HPC)
[3] = dose: 200.0 mg/kg/injection, schedule: Q01DX001 (ip), vehicle: other
[4] = dose: 200.0 mg/kg/injection, schedule: Q04DX003 (ip), vehicle: Klucel (hydroxypropylcellulose) (HPC)
[5] = dose: 400.0 mg/kg/injection, schedule: Q01DX001 (ip), vehicle: other
[6] = dose: 400.0 mg/kg/injection, schedule: Q04DX003 (ip), vehicle: Klucel (hydroxypropylcellulose) (HPC)
[7] = dose: 25.0 mg/kg/injection, schedule: Q01DX009 (ip), vehicle: saline
[8] = dose: 50.0 mg/kg/injection, schedule: Q01DX001 (ip), vehicle: saline
[9] = dose: 50.0 mg/kg/injection, schedule: Q01DX009 (ip), vehicle: saline
[10] = dose: 100.0 mg/kg/injection, schedule: Q01DX001 (ip), vehicle: saline
[11] = dose: 100.0 mg/kg/injection, schedule: Q01DX009 (ip), vehicle: Klucel (hydroxypropylcellulose) (HPC)
[12] = dose: 200.0 mg/kg/injection, schedule: Q01DX009 (ip), vehicle: Klucel (hydroxypropylcellulose) (HPC)
[13] = dose: 100.0 mg/kg/injection, schedule: Q04DX003 (ip), vehicle: saline
[14] = dose: 200.0 mg/kg/injection, schedule: Q04DX003 (ip), vehicle: saline
[15] = dose: 400.0 mg/kg/injection, schedule: Q04DX003 (ip), vehicle: saline
[16] = dose: 100.0 mg/kg/injection, schedule: Q04DX003 (ip), vehicle: saline with Tween-80
[17] = dose: 200.0 mg/kg/injection, schedule: Q04DX003 (ip), vehicle: saline with Tween-80
[18] = dose: 400.0 mg/kg/injection, schedule: Q04DX003 (ip), vehicle: saline with Tween-80
[19] = dose: 50.0 mg/kg/injection, schedule: Q01DX009 (ip), vehicle: Klucel (hydroxypropylcellulose) (HPC)
[20] = dose: 100.0 mg/kg/injection, schedule: Q01DX009 (ip), vehicle: saline with Tween-80
[21] = dose: 200.0 mg/kg/injection, schedule: Q01DX009 (ip), vehicle: saline with Tween-80
[22] = dose: 200.0 mg/kg/injection, schedule: Q01DX001 (ip), vehicle: saline

Measured: T/C

O=[N+]([O-])c1ccc(N2CCCCC2)cc1
inactive: [1] 108 % of control | [2] 107 % of control | [3] 90 % of control | [4] 104 % of control | dose: 222.0 mg/kg/injection, schedule: Q01DX Z (ip), vehicle: methylcellulose (MC) 102 % of control | dose: 333.0 mg/kg/injection, schedule: Q01DX Z (ip), vehicle: methylcellulose (MC) 94 % of control | [5] 103 % of control | [6] 107 % of control | dose: 500.0 mg/kg/injection, schedule: Q01DX Z (ip), vehicle: methylcellulose (MC) 100 % of control

CS(=O)(=O)NN
inactive: [7] 89 % of control | [8] 100 % of control | [9] 94 % of control | [10] 102 % of control and 103 % of control

CCCCCC#CC(=O)OCCCC
inactive: dose: 100.0 mg/kg/injection, schedule: Q04DX002 (ip), vehicle: saline with Tween-80 102 % of control | dose: 200.0 mg/kg/injection, schedule: Q04DX002 (ip), vehicle: saline with Tween-80 94 % of control | dose: 400.0 mg/kg/injection, schedule: Q04DX002 (ip), vehicle: saline with Tween-80 108 % of control

CCN(CC)C(=O)N1CCN(C)CC1
inactive: [11] 101 % of control | [2] 94 % of control | [12] 106 % of control | [4] 98 % of control | dose: 400.0 mg/kg/injection, schedule: Q01DX009 (ip), vehicle: Klucel (hydroxypropylcellulose) (HPC) 104 % of control | [6] 96 % of control

Nc1ncnc(N)c1NC(=O)c1cccc(C(=O)c2ccccc2)c1
inactive: [13] 101 % of control | [14] 100 % of control | [15] 96 % of control

CCCCNC(=O)C1C2C=CC(CC2)C1C(=O)NCCCC (stereo not drawn)
inactive: [16] 104 % of control | [17] 100 % of control | [18] 96 % of control

O=C(CCCl)Nc1ccc(S(=O)(=O)Nc2nccs2)cc1
inactive: [1] 101 % of control | [3] 95 % of control | [5] 97 % of control

COC(=O)C1C2CCc3cc(OC)ccc3C2CCC1(C)C(=O)O (stereo not drawn)
inactive: [2] 95 % of control | [4] 95 % of control | [6] 91 % of control

Cc1cc(NCCN(C(C)C)C(C)C)nc(/N=C(\N)Nc2ccc(Cl)c(C(F)(F)F)c2)n1
inactive: dose: 1.25 mg/kg/injection, schedule: Q01DX009 (ip), vehicle: Klucel (hydroxypropylcellulose) (HPC) 109 % of control | dose: 2.5 mg/kg/injection, schedule: Q01DX009 (ip), vehicle: Klucel (hydroxypropylcellulose) (HPC) 104 % of control | dose: 5.0 mg/kg/injection, schedule: Q01DX009 (ip), vehicle: Klucel (hydroxypropylcellulose) (HPC) 107 % of control | dose: 9.37 mg/kg/injection, schedule: Q01DX009 (ip), vehicle: Klucel (hydroxypropylcellulose) (HPC) 98 % of control | dose: 10.0 mg/kg/injection, schedule: Q01DX009 (ip), vehicle: Klucel (hydroxypropylcellulose) (HPC) 102 % of control | dose: 18.75 mg/kg/injection, schedule: Q01DX009 (ip), vehicle: Klucel (hydroxypropylcellulose) (HPC) 96 % of control | dose: 20.0 mg/kg/injection, schedule: Q01DX009 (ip), vehicle: Klucel (hydroxypropylcellulose) (HPC) 98 % of control | dose: 75.0 mg/kg/injection, schedule: Q01DX001 (ip), vehicle: other 103 % of control | dose: 75.0 mg/kg/injection, schedule: Q04DX003 (ip), vehicle: Klucel (hydroxypropylcellulose) (HPC) 100 % of control | dose: 150.0 mg/kg/injection, schedule: Q01DX001 (ip), vehicle: other 98 % of control | dose: 150.0 mg/kg/injection, schedule: Q04DX003 (ip), vehicle: Klucel (hydroxypropylcellulose) (HPC) 100 % of control | dose: 300.0 mg/kg/injection, schedule: Q01DX001 (ip), vehicle: other 110 % of control | dose: 300.0 mg/kg/injection, schedule: Q04DX003 (ip), vehicle: Klucel (hydroxypropylcellulose) (HPC) 105 % of control

O=C(NCCNC(c1ccccc1)(c1ccccc1)c1ccccc1)C(F)(F)F
inactive: [19] 105 % of control | [11] 100 % of control | [2] 91 % of control | [12] 96 % of control | [4] 100 % of control | [6] 93 % of control

Nc1cccc2c1C(=O)c1cc(Cl)c(Cl)cc1C2=O
inactive: dose: 50.0 mg/kg/injection, schedule: Q01DX009 (ip), vehicle: saline with Tween-80 104 % of control | [20] 97 % of control | [21] 89 % of control

N=C(N)SCCON1C(=O)c2ccccc2C1=O
inactive: [8] 102 % of control | [10] 108 % of control | [22] 112 % of control

COc1ccc(OC)c(C(C)(O)CC(=O)O)c1 (stereo not drawn)
inactive: [20] 100 % of control | [16] 96 % of control | [21] 105 % of control | [17] 93 % of control | dose: 400.0 mg/kg/injection, schedule: Q01DX009 (ip), vehicle: saline with Tween-80 97 % of control | [18] 101 % of control

COc1ccc(C(=NN=C(N)N)c2ccc(OC)cc2)cc1
inactive: dose: 15.0 mg/kg/injection, schedule: Q01DX Z (ip), vehicle: saline 96 % of control | dose: 30.0 mg/kg/injection, schedule: Q01DX Z (ip), vehicle: saline 100 % of control | dose: 30.0 mg/kg/injection, schedule: Q01DX Z (oral), vehicle: saline 105 % of control | dose: 60.0 mg/kg/injection, schedule: Q01DX Z (ip), vehicle: saline 96 % of control | dose: 60.0 mg/kg/injection, schedule: Q01DX Z (oral), vehicle: saline 97 % of control | dose: 120.0 mg/kg/injection, schedule: Q01DX Z (oral), vehicle: saline 105 % of control | dose: 240.0 mg/kg/injection, schedule: Q01DX Z (oral), vehicle: saline 92 % of control | dose: 480.0 mg/kg/injection, schedule: Q01DX Z (oral), vehicle: saline 94 % of control

Cc1ccc(-c2nc3ncnc(N)c3[nH]2)cc1N
inactive: [13] 89 % of control | [14] 94 % of control | [15] 94 % of control

CCCNCCCN
inactive: [7] 100 % of control | dose: 25.0 mg/kg/injection, schedule: Q04DX003 (ip), vehicle: saline 93 % of control | [9] 105 % of control | dose: 50.0 mg/kg/injection, schedule: Q04DX003 (ip), vehicle: saline 101 % of control | [13] 94 % of control and 102 % of control | [14] 88 % of control

COc1ccc(CC2NCCc3cc(OC)c(OC)cc32)cc1OC (stereo not drawn)
inactive: dose: 75.0 mg/kg/injection, schedule: Q01DX001 (ip), vehicle: saline 101 % of control

CN(C)C/C(=N\O)c1ccc(Cl)cc1
inactive: [19] 93 % of control | [10] 97 % of control | [11] 93 % of control | [22] 100 % of control | [12] 100 % of control
